Source: paper PMC6407917, “Identification of GSK3186899/DDD853651 as a Preclinical Development Candidate for the Treatment of Visceral Leishmaniasis” (Journal of Medicinal Chemistry, 2018)

What was measured:
Assay in all cases: biochemical
Parameters in all cases: species or system HEK293/K-562/placenta mixed human extract; Kinobeads chemoproteomic competition binding, quantified by TMT LC-MS/MS, dose response up to 20 uM
ABL2 = ABL2 (Homo sapiens, UniProt P42684)
AKT2 = AKT2 (Homo sapiens, UniProt P31751)
CDKL5 = CDKL5 (Homo sapiens, UniProt O76039)
DAPK1 = DAPK1 (Homo sapiens, UniProt P53355)
Sequence of DAPK1 (P53355 whole entry): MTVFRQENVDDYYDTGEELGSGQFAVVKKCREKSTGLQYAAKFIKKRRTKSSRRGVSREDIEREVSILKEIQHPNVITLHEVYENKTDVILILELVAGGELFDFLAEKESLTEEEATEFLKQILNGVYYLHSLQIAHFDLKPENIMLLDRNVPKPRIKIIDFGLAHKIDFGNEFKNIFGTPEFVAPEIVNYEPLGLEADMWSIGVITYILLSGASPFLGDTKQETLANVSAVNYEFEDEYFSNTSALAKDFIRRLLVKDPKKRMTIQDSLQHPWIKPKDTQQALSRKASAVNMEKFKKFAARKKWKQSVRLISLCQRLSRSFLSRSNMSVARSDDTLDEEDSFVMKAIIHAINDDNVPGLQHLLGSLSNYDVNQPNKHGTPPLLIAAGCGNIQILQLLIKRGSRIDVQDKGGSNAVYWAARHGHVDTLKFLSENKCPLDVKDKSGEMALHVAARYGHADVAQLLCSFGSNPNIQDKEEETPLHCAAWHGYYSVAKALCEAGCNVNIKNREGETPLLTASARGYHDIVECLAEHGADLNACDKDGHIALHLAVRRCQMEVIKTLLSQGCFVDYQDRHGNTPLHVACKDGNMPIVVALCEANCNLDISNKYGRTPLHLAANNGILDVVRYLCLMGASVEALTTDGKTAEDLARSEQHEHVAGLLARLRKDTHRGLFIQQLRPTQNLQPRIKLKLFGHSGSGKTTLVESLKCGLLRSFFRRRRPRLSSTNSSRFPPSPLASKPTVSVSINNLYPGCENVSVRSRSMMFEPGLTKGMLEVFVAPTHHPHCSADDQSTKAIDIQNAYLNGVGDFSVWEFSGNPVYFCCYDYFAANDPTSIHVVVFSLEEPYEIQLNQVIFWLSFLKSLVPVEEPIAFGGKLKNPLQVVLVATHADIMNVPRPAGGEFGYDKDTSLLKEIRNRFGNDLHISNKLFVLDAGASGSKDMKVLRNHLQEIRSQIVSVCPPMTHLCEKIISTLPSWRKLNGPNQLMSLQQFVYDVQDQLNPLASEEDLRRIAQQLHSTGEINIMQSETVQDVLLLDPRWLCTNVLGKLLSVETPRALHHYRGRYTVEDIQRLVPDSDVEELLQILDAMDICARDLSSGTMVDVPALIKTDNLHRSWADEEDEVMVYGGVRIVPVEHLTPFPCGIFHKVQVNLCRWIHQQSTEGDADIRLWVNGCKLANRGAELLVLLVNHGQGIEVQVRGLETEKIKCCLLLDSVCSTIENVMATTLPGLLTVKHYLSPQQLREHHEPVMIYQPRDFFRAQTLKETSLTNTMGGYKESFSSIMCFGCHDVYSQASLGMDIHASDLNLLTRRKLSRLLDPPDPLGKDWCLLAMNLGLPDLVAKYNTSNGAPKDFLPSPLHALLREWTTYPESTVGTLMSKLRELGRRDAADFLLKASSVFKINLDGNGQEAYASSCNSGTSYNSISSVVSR

EPHA7 = EPHA7 (Homo sapiens, UniProt Q15375)
ERN1 = ERN1 (Homo sapiens, UniProt O75460)
FN3KRP = FN3KRP (Homo sapiens, UniProt Q9HA64)
Sequence of FN3KRP (Q9HA64 whole entry): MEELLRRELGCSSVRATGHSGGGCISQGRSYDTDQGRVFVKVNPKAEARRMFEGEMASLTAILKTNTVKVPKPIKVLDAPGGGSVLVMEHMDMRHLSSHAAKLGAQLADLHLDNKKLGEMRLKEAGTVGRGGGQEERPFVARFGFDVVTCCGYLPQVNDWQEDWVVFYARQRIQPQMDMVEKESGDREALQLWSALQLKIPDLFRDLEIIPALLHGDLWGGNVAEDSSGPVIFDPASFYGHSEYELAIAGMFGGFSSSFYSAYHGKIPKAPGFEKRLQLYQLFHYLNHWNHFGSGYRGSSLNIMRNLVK

IRAK3 = IRAK3 (Homo sapiens, UniProt Q9Y616)
LIMK2 = LIMK2 (Homo sapiens, UniProt P53671)
Sequence of LIMK2 (P53671 whole entry): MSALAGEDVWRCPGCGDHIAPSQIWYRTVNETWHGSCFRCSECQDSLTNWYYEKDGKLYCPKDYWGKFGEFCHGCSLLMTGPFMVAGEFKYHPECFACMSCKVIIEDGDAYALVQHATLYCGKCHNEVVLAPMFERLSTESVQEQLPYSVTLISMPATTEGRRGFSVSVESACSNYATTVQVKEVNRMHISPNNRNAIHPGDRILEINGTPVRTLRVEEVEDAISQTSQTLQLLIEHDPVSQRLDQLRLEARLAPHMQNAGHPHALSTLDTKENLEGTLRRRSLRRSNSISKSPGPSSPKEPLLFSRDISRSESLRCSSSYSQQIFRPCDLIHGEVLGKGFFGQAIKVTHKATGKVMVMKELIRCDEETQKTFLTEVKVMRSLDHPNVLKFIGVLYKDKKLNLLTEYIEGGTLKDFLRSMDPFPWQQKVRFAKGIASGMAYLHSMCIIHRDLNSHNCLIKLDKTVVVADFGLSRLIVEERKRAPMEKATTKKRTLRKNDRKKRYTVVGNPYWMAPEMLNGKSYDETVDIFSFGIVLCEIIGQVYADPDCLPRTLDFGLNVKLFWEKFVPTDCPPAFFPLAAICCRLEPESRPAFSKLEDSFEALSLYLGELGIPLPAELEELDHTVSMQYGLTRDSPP

LYN = LYN (Homo sapiens, UniProt P07948)
Sequence of LYN (P07948 whole entry): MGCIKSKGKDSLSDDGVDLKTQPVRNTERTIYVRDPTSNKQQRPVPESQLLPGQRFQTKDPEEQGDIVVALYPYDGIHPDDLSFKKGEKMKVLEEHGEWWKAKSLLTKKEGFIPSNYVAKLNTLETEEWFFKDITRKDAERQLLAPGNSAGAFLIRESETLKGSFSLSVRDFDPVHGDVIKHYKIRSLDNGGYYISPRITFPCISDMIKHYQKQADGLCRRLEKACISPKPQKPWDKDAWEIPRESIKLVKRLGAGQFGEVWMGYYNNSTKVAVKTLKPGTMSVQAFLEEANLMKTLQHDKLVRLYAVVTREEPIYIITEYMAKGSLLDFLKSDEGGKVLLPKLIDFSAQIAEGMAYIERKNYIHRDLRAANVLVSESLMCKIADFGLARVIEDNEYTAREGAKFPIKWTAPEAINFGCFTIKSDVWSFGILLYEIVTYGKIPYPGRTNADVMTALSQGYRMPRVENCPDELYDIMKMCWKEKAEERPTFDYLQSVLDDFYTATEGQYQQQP

MAP3K6 = MAP3K6 (Homo sapiens, UniProt O95382)
MAP4K4 = MAP4K4 (Homo sapiens, UniProt O95819)
MAP4K5 = MAP4K5 (Homo sapiens, UniProt Q9Y4K4)
Sequence of MAP4K5 (Q9Y4K4 whole entry): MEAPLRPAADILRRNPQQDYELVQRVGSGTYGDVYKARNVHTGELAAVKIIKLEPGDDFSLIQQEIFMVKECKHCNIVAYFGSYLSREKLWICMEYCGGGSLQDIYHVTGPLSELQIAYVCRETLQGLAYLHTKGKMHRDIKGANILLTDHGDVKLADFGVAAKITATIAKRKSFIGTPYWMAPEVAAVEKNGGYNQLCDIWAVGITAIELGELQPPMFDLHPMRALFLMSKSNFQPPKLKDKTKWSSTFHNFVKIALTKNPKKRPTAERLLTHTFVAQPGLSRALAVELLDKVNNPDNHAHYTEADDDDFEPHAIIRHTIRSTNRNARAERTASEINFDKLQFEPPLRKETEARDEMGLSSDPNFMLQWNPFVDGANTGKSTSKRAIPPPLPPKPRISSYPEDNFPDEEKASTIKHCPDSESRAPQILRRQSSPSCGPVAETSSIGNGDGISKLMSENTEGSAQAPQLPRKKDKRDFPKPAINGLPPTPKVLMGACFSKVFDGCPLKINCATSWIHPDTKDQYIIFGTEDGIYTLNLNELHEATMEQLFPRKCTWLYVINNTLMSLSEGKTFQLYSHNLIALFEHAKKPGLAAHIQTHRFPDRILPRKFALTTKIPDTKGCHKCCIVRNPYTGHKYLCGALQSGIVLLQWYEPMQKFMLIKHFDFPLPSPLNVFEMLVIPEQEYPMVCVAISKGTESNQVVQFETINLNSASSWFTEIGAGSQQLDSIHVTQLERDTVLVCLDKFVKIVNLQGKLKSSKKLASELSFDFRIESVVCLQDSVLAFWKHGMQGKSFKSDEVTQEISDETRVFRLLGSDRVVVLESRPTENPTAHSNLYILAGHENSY

MAPK11 = MAPK11 (Homo sapiens, UniProt Q15759)
Sequence of MAPK11 (Q15759 whole entry): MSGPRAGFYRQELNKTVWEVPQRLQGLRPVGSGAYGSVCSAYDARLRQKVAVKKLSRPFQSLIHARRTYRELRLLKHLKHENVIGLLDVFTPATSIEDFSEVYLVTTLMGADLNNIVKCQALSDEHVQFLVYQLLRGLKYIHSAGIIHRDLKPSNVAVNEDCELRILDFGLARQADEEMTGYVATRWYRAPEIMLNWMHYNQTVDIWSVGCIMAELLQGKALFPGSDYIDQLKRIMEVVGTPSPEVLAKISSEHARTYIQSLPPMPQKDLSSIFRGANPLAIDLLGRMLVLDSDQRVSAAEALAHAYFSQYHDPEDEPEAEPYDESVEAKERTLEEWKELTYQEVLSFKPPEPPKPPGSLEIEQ

PAK6 = PAK6 (Homo sapiens, UniProt Q9NQU5)
PHKG2 = PHKG2 (Homo sapiens, UniProt P15735)
PIK3R4 = PIK3R4 (Homo sapiens, UniProt Q99570)
PTK2 = PTK2 (Homo sapiens, UniProt Q05397)
RPS6KA3 = RPS6KA3 (Homo sapiens, UniProt P51812)
Sequence of RPS6KA3 (P51812 whole entry): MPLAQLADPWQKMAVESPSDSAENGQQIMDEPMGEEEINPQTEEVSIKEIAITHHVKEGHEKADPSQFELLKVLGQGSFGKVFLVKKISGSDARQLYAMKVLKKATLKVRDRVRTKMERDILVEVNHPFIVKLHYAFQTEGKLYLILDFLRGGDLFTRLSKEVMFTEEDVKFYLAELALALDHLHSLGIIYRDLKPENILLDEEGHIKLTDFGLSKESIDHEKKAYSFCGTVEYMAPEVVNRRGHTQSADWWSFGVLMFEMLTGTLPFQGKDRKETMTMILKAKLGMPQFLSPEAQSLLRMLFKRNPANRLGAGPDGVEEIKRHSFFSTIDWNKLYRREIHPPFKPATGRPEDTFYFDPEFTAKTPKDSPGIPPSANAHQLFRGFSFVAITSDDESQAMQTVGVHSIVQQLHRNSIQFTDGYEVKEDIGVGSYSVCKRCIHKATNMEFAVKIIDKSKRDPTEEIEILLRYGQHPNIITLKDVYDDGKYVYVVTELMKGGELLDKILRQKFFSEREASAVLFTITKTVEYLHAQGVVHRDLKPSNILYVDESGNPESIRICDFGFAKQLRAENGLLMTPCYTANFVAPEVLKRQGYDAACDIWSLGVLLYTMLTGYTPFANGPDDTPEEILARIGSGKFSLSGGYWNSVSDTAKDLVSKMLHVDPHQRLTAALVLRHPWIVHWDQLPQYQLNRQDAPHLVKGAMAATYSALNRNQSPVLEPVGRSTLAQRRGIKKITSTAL

TAOK2 = TAOK2 (Homo sapiens, UniProt Q9UL54)
TEK = TEK (Homo sapiens, UniProt Q02763)

IC50 (ABL2): ≥ 20 µM
IC50 (AKT2): ≥ 20 µM
IC50 (CDKL5): ≥ 20 µM
IC50 (DAPK1): ≥ 20 µM
IC50 (EPHA7): ≥ 20 µM
IC50 (ERN1): ≥ 20 µM
IC50 (FN3KRP): ≥ 20 µM
IC50 (IRAK3): ≥ 20 µM
IC50 (LIMK2): ≥ 20 µM
IC50 (LYN): ≥ 20 µM
IC50 (MAP3K6): ≥ 20 µM
IC50 (MAP4K4): ≥ 20 µM
IC50 (MAP4K5): ≥ 20 µM
IC50 (MAPK11): ≥ 20 µM
IC50 (PAK6): ≥ 20 µM
IC50 (PHKG2): ≥ 20 µM
IC50 (PIK3R4): ≥ 20 µM
IC50 (PTK2): ≥ 20 µM
IC50 (RPS6KA3): ≥ 20 µM
IC50 (TAOK2): 5.2 µM
IC50 (TEK): ≥ 20 µM
SMILES: COc1ccccc1-c1n[nH]c2nc(N[C@H]3CC[C@H](NS(=O)(=O)CCC(F)(F)F)CC3)nc(OC)c12 [compound 31, 3,3,3-Trifluoro-N-(trans-4-((4-methoxy-3-(2-methoxyphenyl)-1H-pyrazolo[3,4-d]pyrimidin-6-yl)amino)cyclohexyl)propane-1-sulfonamide]
